Assay results: patent publication EP0400609A1, “Intravenous solutions with quick action onset” (CIBA-GEIGY AG, priority 1989, dated 1990)
Like-named read-outs stand apart in the source and are kept apart here.

Key:
[1] = Dissolution of dry preparations in water; assay type: physicochemical; conditions: without aids, at 20°C
Experimental: Die unter den Nummern 14 bis 17 hergestellten Trockenpräparate lösen sich ohne Hilfsmittel in weniger als einer Minute bei 20°C in Wasser, während sich mikrokristallisiertes Carbamazepin unter den gleichen Bedingungen nicht löst.

[2] = system: Tonische Konvulsionen der Kinterextremitäten; assay: Maximal electroshock test in rats; assay type: in vivo, Ratten; conditions: for ED50: Rattus norvegicus
Description: Die akute Schutzwirkung von Carbamazepin nach intravenöser Verabreichung im Vergleich zur oralen wurde mit Hilfe des maximalen Elektroschocks ermittelt. Die folgenden Methoden wurden verwendet: - Elektroschock Test an Ratten: Tonische Konvulsionen der Kinterextremitäten wurden durch Verabreichung eines Wechselstroms von 50 Hz und 36 mA während 0,63 Sekunden mit Hilfe von Cornealelektroden ausgelöst. Es wurden 10 Ratten pro Dosis und Zeiteinheit verwendet; eine Gruppe diente als Kontrolle. Die Anzahl der Ratten, die keine tonische Konvulsion der Hinterextremitäten aufwiesen, wurde für jede Gruppe bestimmt. Die ED₅₀ wurde mit Hilfe der Regressionsanalyse nach der Methode von Spearman und Kärber berechnet. - Elektroschock Test an Mäusen: Tonische Konvulsionen der Hinterextremitäten wurden durch Verabreichung eines Wechselstromes von 50 Hz und 18 mA während 0,2 Sekunden mittels Cornealelektroden ausgelöst. Für jede Dosis und Zeiteinheit wurden 10 Mäuse verwendet; eine Gruppe diente als Kontrolle. Die Anzahl der Mäuse, die keine tonische Konvulsion der Hinterextremitäten zeigten, wurde für jede Gruppe bestimmt. Die ED₅₀ wurde mit Hilfe der Regressionsanalyse nach der Methode von Spearman und Kärber bestimmt.

[3] = system: Tonische Konvulsionen der Hinterextremitäten; assay: Maximal electroshock test in mice; assay type: in vivo, Mäuse; conditions: for ED50: Mus musculus
Description: Die akute Schutzwirkung von Carbamazepin nach intravenöser Verabreichung im Vergleich zur oralen wurde mit Hilfe des maximalen Elektroschocks ermittelt. Die folgenden Methoden wurden verwendet: - Elektroschock Test an Ratten: Tonische Konvulsionen […] durch Verabreichung eines Wechselstroms von 50 Hz und 36 mA während 0,63 Sekunden mit Hilfe von Cornealelektroden ausgelöst. Es wurden 10 Ratten pro Dosis und Zeiteinheit verwendet; eine Gruppe diente als Kontrolle. Die Anzahl der Ratten, die keine tonische Konvulsion […], wurde für jede Gruppe bestimmt. Die ED50 wurde mit Hilfe der Regressionsanalyse nach der Methode von Spearman und Kärber berechnet. - Elektroschock Test an Mäusen: Tonische Konvulsionen […] durch Verabreichung eines Wechselstromes von 50 Hz und 18 […] jede Dosis und Zeiteinheit wurden 10 Mäuse verwendet; eine Gruppe diente als Kontrolle. Die Anzahl der Mäuse, die keine tonische Konvulsion […], wurde für jede Gruppe bestimmt. Die ED50 wurde mit Hilfe der Regressionsanalyse nach der Methode von Spearman und Kärber bestimmt.

NC(=O)N1c2ccccc2C=Cc2ccccc21 [Carbamazepin, 5H-Dibenz[b,f]azepin-5-carboxamid]
Auflösung in Wasser [1]: nicht löst | ED50 ([2]; 2.5 min, intravenous, 2,5 min after dosing, read-out: ED₅₀ in mg/kg intravenös Ratten): 1.9 mg/kg | ED50 ([2]; 2.5 min, oral, 2,5 min after dosing, read-out: ED₅₀ in mg/kg oral Ratten): > 60 mg/kg | ED50 ([2]; 5 min, intravenous, 5 min after dosing, read-out: ED₅₀ in mg/kg intravenös Ratten): 1.6 mg/kg | ED50 ([2]; 5 min, oral, 5 min after dosing, read-out: ED₅₀ in mg/kg oral Ratten): 60 mg/kg | ED50 ([2]; 0.25 h, intravenous, 15 min after dosing, read-out: ED₅₀ in mg/kg intravenös Ratten): 2.5 mg/kg | ED50 ([2]; 0.25 h, oral, 15 min after dosing, read-out: ED₅₀ in mg/kg oral Ratten): 15.4 mg/kg | ED50 ([2]; 0.5 h, intravenous, 30 min after dosing, read-out: ED₅₀ in mg/kg intravenös Ratten): 3 mg/kg | ED50 ([2]; 0.5 h, oral, 30 min after dosing, read-out: ED₅₀ in mg/kg oral Ratten): 9.6 mg/kg | ED50 ([2]; 1 h, intravenous, 60 min after dosing, read-out: ED₅₀ in mg/kg intravenös Ratten): 2.5 mg/kg | ED50 ([2]; 1 h, oral, 60 min after dosing, read-out: ED₅₀ in mg/kg oral Ratten): 10 mg/kg | ED50 ([2]; 2 h, intravenous, 120 min after dosing, read-out: ED₅₀ in mg/kg intravenös Ratten): 4 mg/kg | ED50 ([2]; 2 h, oral, 120 min after dosing, read-out: ED₅₀ in mg/kg oral Ratten): 12.5 mg/kg | Schutzwirkung, % bei 10 mg/kg, Ratten ([2]; intravenous, 240 min after dosing, 10 mg/kg, printed in place of an ED₅₀): 40 % bei 10 mg/kg | ED50 ([3]; 2.5 min, intravenous, 2,5 min after dosing, read-out: ED₅₀ in mg/kg intravenös Mäuse): 5.4 mg/kg | ED50 ([3]; 5 min, intravenous, 5 min after dosing, read-out: ED₅₀ in mg/kg intravenös Mäuse): 6.2 mg/kg | ED50 ([3]; 5 min, oral, 5 min after dosing, read-out: ED₅₀ in mg/kg oral Mäuse): 22.7 mg/kg | ED50 ([3]; 0.25 h, intravenous, 15 min after dosing, read-out: ED₅₀ in mg/kg intravenös Mäuse): 5.4 mg/kg | ED50 ([3]; 0.25 h, oral, 15 min after dosing, read-out: ED₅₀ in mg/kg oral Mäuse): 22.3 mg/kg | ED50 ([3]; 0.5 h, intravenous, 30 min after dosing, read-out: ED₅₀ in mg/kg intravenös Mäuse): 6.2 mg/kg | ED50 ([3]; 0.5 h, oral, 30 min after dosing, read-out: ED₅₀ in mg/kg oral Mäuse): 10.7 mg/kg | ED50 ([3]; 1 h, intravenous, 60 min after dosing, read-out: ED₅₀ in mg/kg intravenös Mäuse): 9.3 mg/kg | ED50 ([3]; 1 h, oral, 60 min after dosing, read-out: ED₅₀ in mg/kg oral Mäuse): 13 mg/kg | ED50 ([3]; 2 h, intravenous, 120 min after dosing, read-out: ED₅₀ in mg/kg intravenös Mäuse): 15.8 mg/kg | ED50 ([3]; 2 h, oral, 120 min after dosing, read-out: ED₅₀ in mg/kg oral Mäuse): 27 mg/kg | ED50 ([3]; 4 h, intravenous, 240 min after dosing, read-out: ED₅₀ in mg/kg in Mäuse): > 20 mg/kg | Schutzwirkung, % bei 60, oral Mäuse ([3]; oral, 2,5 min after dosing, at 60 (column unit mg/kg), printed in place of an ED₅₀): 10 % bei 60
